# Measurements published in PubChem BioAssay AID1963873 (Molecular Pharmacology Branch, DTP, NCI, 2024).
# System: 276233-004-R-J1-PDC KRAS spheroids with HUVEC/MSC, viability
# Assay: Anticancer human tumor 276233-004-R-J1-PDC patient-derived colon adenocarcinoma cell line growth inhibition [KRAS2]
# Settings: for viability, T/C: stronger effect = lower value
# How it was run: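 Combination screen of spheroid viability in tumor-cell co-cultures with endothelial (HUVEC) and mesenchymal stem cell stroma. Each agent was tested in half-log dilutions, topping at clinical Cmax or at 10 microM without a known Cmax.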
# [1] = curve of first compound, second compound 0.1 µM
# [2] = curve of first compound, second compound 0.316 µM
# [3] = curve of first compound, second compound 1 µM
# [4] = curve of first compound, second compound 3.16 µM
# [5] = curve of first compound, second compound 10 µM
# [6] = second compound 0.1 µM, first compound 0.000316 µM
# [7] = second compound 0.1 µM, first compound 0.001 µM
# [8] = second compound 0.1 µM, first compound 0.00316 µM
# [9] = second compound 0.1 µM, first compound 0.01 µM
# [10] = second compound 0.1 µM, first compound 0.0316 µM
# [11] = second compound 0.1 µM, first compound 0.1 µM
# [12] = second compound 0.316 µM, first compound 0.000316 µM
# [13] = second compound 0.316 µM, first compound 0.001 µM
# [14] = second compound 0.316 µM, first compound 0.00316 µM
# [15] = second compound 0.316 µM, first compound 0.01 µM
# [16] = second compound 0.316 µM, first compound 0.0316 µM
# [17] = second compound 0.316 µM, first compound 0.1 µM
# [18] = second compound 1 µM, first compound 0.000316 µM
# [19] = second compound 1 µM, first compound 0.001 µM
# [20] = second compound 1 µM, first compound 0.00316 µM
# [21] = second compound 1 µM, first compound 0.01 µM
# [22] = second compound 1 µM, first compound 0.0316 µM
# [23] = second compound 1 µM, first compound 0.1 µM
# [24] = second compound 3.16 µM, first compound 0.000316 µM
# [25] = second compound 3.16 µM, first compound 0.001 µM
# [26] = second compound 3.16 µM, first compound 0.00316 µM
# [27] = second compound 3.16 µM, first compound 0.01 µM
# [28] = second compound 3.16 µM, first compound 0.0316 µM
# [29] = second compound 3.16 µM, first compound 0.1 µM
# [30] = second compound 10 µM, first compound 0.000316 µM
# [31] = second compound 10 µM, first compound 0.001 µM
# [32] = second compound 10 µM, first compound 0.00316 µM
# [33] = second compound 10 µM, first compound 0.01 µM
# [34] = second compound 10 µM, first compound 0.0316 µM
# [35] = second compound 10 µM, first compound 0.1 µM
# [36] = second compound 0.1 µM, first compound 0.316 µM
# [37] = second compound 0.1 µM, first compound 1 µM
# [38] = second compound 0.1 µM, first compound 3.16 µM
# [39] = second compound 0.316 µM, first compound 0.316 µM
# [40] = second compound 0.316 µM, first compound 1 µM
# [41] = second compound 0.316 µM, first compound 3.16 µM
# [42] = second compound 1 µM, first compound 0.316 µM
# [43] = second compound 1 µM, first compound 1 µM
# [44] = second compound 1 µM, first compound 3.16 µM
# [45] = second compound 3.16 µM, first compound 0.316 µM
# [46] = second compound 3.16 µM, first compound 1 µM
# [47] = second compound 3.16 µM, first compound 3.16 µM
# [48] = second compound 0.1 µM, first compound 10 µM
# [49] = second compound 0.316 µM, first compound 10 µM
# [50] = second compound 1 µM, first compound 10 µM
# [51] = second compound 3.16 µM, first compound 10 µM
# [52] = second compound 10 µM, first compound 0.316 µM
# [53] = second compound 10 µM, first compound 1 µM
# [54] = second compound 10 µM, first compound 3.16 µM
# [55] = second compound 10 µM, first compound 10 µM
# 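Also: cells exposed to agents for seven days before viability read.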
# 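For viability, T/C in this document: 100% = DMSO vehicle control wells and lower values mean fewer viable cells.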
structure (smiles),measurement,setting,value
CN(C)C/C=C/C(=O)Nc1cc2c(Nc3ccc(F)c(Cl)c3)ncnc2cc1O[C@H]1CCOC1 + C=CC(=O)N1CCN(c2nc(=O)n(-c3c(C)ccnc3C(C)C)c3nc(-c4c(O)cccc4F)c(F)cc23)C(C)C1,IC50,[1],> 100 nM
same,IC50,[2],> 100 nM
same,IC50,[3],> 100 nM
same,IC50,[4],> 100 nM
same,IC50,[5],> 100 nM
same,"viability, T/C",[6],93.5%
same,"viability, T/C",[7],97.1%
same,"viability, T/C",[8],72%
same,"viability, T/C",[9],87.6%
same,"viability, T/C",[10],75.8%
same,"viability, T/C",[11],85.3%
same,"viability, T/C",[12],109%
same,"viability, T/C",[13],80.8%
same,"viability, T/C",[14],83%
same,"viability, T/C",[15],67.6%
same,"viability, T/C",[16],88%
same,"viability, T/C",[17],87%
same,"viability, T/C",[18],103%
same,"viability, T/C",[19],101%
same,"viability, T/C",[20],80.8%
same,"viability, T/C",[21],82.6%
same,"viability, T/C",[22],84.6%
same,"viability, T/C",[23],95.6%
same,"viability, T/C",[24],87.1%
same,"viability, T/C",[25],77.8%
same,"viability, T/C",[26],85.9%
same,"viability, T/C",[27],69.9%
same,"viability, T/C",[28],78.6%
same,"viability, T/C",[29],69.7%
same,"viability, T/C",[30],66%
same,"viability, T/C",[31],65.8%
same,"viability, T/C",[32],57.8%
same,"viability, T/C",[33],66.8%
same,"viability, T/C",[34],69.1%
same,"viability, T/C",[35],84.9%
CC(=O)OC12COC1CC(O)C1(C)C(=O)C(O)C3=C(C)C(OC(=O)C(O)C(NC(=O)OC(C)(C)C)c4ccccc4)CC(O)(C(OC(=O)c4ccccc4)C21)C3(C)C (centres undefined) + C=CC(=O)N1CCN(c2nc(OCC3CCCN3C)nc3c2CCN(c2cccc4cccc(C)c24)C3)CC1CC#N,IC50,"curve of first compound, second compound 0.0316 µM",> 3160 nM
same,IC50,[1],> 3160 nM
same,IC50,[2],> 3160 nM
same,IC50,[3],> 3160 nM
same,IC50,[4],> 3160 nM
same,"viability, T/C","second compound 0.0316 µM, first compound 0.01 µM",82.1%
same,"viability, T/C","second compound 0.0316 µM, first compound 0.0316 µM",90.6%
same,"viability, T/C","second compound 0.0316 µM, first compound 0.1 µM",103%
same,"viability, T/C","second compound 0.0316 µM, first compound 0.316 µM",96%
same,"viability, T/C","second compound 0.0316 µM, first compound 1 µM",112%
same,"viability, T/C","second compound 0.0316 µM, first compound 3.16 µM",94.8%
same,"viability, T/C",[9],96.7%
same,"viability, T/C",[10],96.3%
same,"viability, T/C",[11],76.4%
same,"viability, T/C",[36],86.8%
same,"viability, T/C",[37],91.5%
same,"viability, T/C",[38],95.5%
same,"viability, T/C",[15],97.8%
same,"viability, T/C",[16],83.4%
same,"viability, T/C",[17],73.6%
same,"viability, T/C",[39],72.2%
same,"viability, T/C",[40],99%
same,"viability, T/C",[41],107%
same,"viability, T/C",[21],84.4%
same,"viability, T/C",[22],79.3%
same,"viability, T/C",[23],75.8%
same,"viability, T/C",[42],71.3%
same,"viability, T/C",[43],93.3%
same,"viability, T/C",[44],98.2%
same,"viability, T/C",[27],103%
same,"viability, T/C",[28],87.8%
same,"viability, T/C",[29],88.4%
same,"viability, T/C",[45],87.2%
same,"viability, T/C",[46],95.7%
same,"viability, T/C",[47],112%
CN(C)C/C=C/C(=O)Nc1cc2c(Nc3ccc(F)c(Cl)c3)ncnc2cc1O[C@H]1CCOC1 + CNCc1ccccc1-c1csc(C(C)Nc2nc(C)nc3cc(OC)c(OC)cc23)c1,IC50,[1],> 100 nM
same,IC50,[2],> 100 nM
same,IC50,[3],> 100 nM
same,IC50,[4],< 0.316 nM
same,IC50,[5],< 0.316 nM
same,"viability, T/C",[6],95.8%
same,"viability, T/C",[7],106%
same,"viability, T/C",[8],89%
same,"viability, T/C",[9],95.2%
same,"viability, T/C",[10],86.8%
same,"viability, T/C",[11],74.7%
same,"viability, T/C",[12],95.9%
same,"viability, T/C",[13],82.5%
same,"viability, T/C",[14],83.1%
same,"viability, T/C",[15],73%
same,"viability, T/C",[16],67.9%
same,"viability, T/C",[17],69.8%
same,"viability, T/C",[18],81.4%
same,"viability, T/C",[19],73.5%
same,"viability, T/C",[20],77.3%
same,"viability, T/C",[21],81.2%
same,"viability, T/C",[22],63%
same,"viability, T/C",[23],79.2%
same,"viability, T/C",[24],4.26%
same,"viability, T/C",[25],2.41%
same,"viability, T/C",[26],3.56%
same,"viability, T/C",[27],3.46%
same,"viability, T/C",[28],8.28%
same,"viability, T/C",[29],1.18%
same,"viability, T/C",[30],5.68%
same,"viability, T/C",[31],0.19%
same,"viability, T/C",[32],0.31%
same,"viability, T/C",[33],0.19%
same,"viability, T/C",[34],0.88%
same,"viability, T/C",[35],0.67%
O=C(c1cc(Cc2n[nH]c(=O)c3ccccc23)ccc1F)N1CCN(C(=O)C2CC2)CC1,"viability, T/C",compound 0.1 µM,91.9% [middle of 5 runs]
same,"viability, T/C",compound 0.316 µM,84.4% [middle of 5 runs]
same,"viability, T/C",compound 1 µM,89.5% [middle of 5 runs]
same,IC50,curve of compound,> 10000 nM
COC(=O)c1ccc2c(C(=Nc3ccc(N(C)C(=O)CN4CCN(C)CC4)cc3)c3ccccc3)c(O)[nH]c2c1 + COc1cc2nc(C)nc(NC(C)c3cc(N)cc(C(F)(F)F)c3)c2cc1OC1CCOC1,IC50,[1],> 10000 nM
same,IC50,[2],> 10000 nM
same,IC50,[3],> 10000 nM
same,IC50,[4],2750 nM
same,IC50,[5],< 31.6 nM
same,"viability, T/C",[10],96.3%
same,"viability, T/C",[11],77%
same,"viability, T/C",[36],80.4%
same,"viability, T/C",[37],83.1%
same,"viability, T/C",[38],70%
same,"viability, T/C",[48],83.7%
same,"viability, T/C",[16],94.1%
same,"viability, T/C",[17],71.5%
same,"viability, T/C",[39],74.2%
same,"viability, T/C",[40],65.3%
same,"viability, T/C",[41],70%
same,"viability, T/C",[49],74.2%
same,"viability, T/C",[22],78.6%
same,"viability, T/C",[23],80.9%
same,"viability, T/C",[42],70%
same,"viability, T/C",[43],70.2%
same,"viability, T/C",[44],62.9%
same,"viability, T/C",[50],61.6%
same,"viability, T/C",[28],72.1%
same,"viability, T/C",[29],66.6%
same,"viability, T/C",[45],58.7%
same,"viability, T/C",[46],51.5%
same,"viability, T/C",[47],54.7%
same,"viability, T/C",[51],6.87%
same,"viability, T/C",[34],24.1%
same,"viability, T/C",[35],25.9%
same,"viability, T/C",[52],30.9%
same,"viability, T/C",[53],20.9%
same,"viability, T/C",[54],13.8%
same,"viability, T/C",[55],1.87%
Cn1nccc1Nc1nccc(-c2cc3c(s2)C(C)(C)N(CCN2CCOCC2)C3=O)n1 + CNCc1ccccc1-c1csc(C(C)Nc2nc(C)nc3cc(OC)c(OC)cc23)c1,IC50,[1],7270 nM
same,IC50,[2],> 10000 nM
same,IC50,[3],1060 nM
same,IC50,[4],< 31.6 nM
same,IC50,[5],< 31.6 nM
same,"viability, T/C",[10],107%
same,"viability, T/C",[11],91.7%
same,"viability, T/C",[36],80.2%
same,"viability, T/C",[37],81.6%
same,"viability, T/C",[38],49.3%
same,"viability, T/C",[48],49.4%
same,"viability, T/C",[16],115%
same,"viability, T/C",[17],89.9%
same,"viability, T/C",[39],94.2%
same,"viability, T/C",[40],79.3%
same,"viability, T/C",[41],50.1%
same,"viability, T/C",[49],60.2%
same,"viability, T/C",[22],86%
same,"viability, T/C",[23],83.1%
same,"viability, T/C",[42],68%
same,"viability, T/C",[43],52.4%
same,"viability, T/C",[44],27.3%
same,"viability, T/C",[50],6.69%
same,"viability, T/C",[28],3.02%
same,"viability, T/C",[29],2.17%
same,"viability, T/C",[45],2.97%
same,"viability, T/C",[46],3.66%
same,"viability, T/C",[47],1.05%
same,"viability, T/C",[51],0.59%
same,"viability, T/C",[34],2.67%
same,"viability, T/C",[35],2.95%
same,"viability, T/C",[52],1.94%
same,"viability, T/C",[53],1.75%
same,"viability, T/C",[54],1.4%
same,"viability, T/C",[55],0.24%
